# Results: patent US10808008B2, “Aromatic-cationic peptides and uses of same” (Cornell University, priority 2012, dated 2020)
# Entries after “also recorded” stand apart in the source; their conditions may differ.
# How the values were obtained:
# cytochrome c [1] = target: T1, cytochrome c (Equus caballus, UniProt P00004); experiment: Cytochrome c reduction kinetics (absorption spectroscopy); type: biochemical
# Protocol: Increasing amounts of aromatic-cationic peptides were added to a solution of oxidized cytochrome c. The formation of reduced cytochrome c was monitored by absorbance at […]. The rate of cytochrome c reduction was determined by non-linear analysis (Prizm software).
# Time-resolved UV-Visible absorption spectroscopy was used to study the electron transport process of cytochrome c in the presence of peptides. Reduced cytochrome c was monitored by absorbance at a broad-band spectral range (200-1100 nm). The absorption changes were recorded with a UV/Visible spectrophotometer (Ultrospec 3300 pro, GE) in quartz cells with path lengths of 1 or 2 mm. N-acetylcysteine (NAC) and glutathione were used as electron donors to reduce oxidized cytochrome c. The rate constant of cytochrome c reduction was estimated by adding various concentrations of peptides. The dose dependence of the peptides was correlated to the cytochrome c reduction kinetics.
# Absorption spectroscopy (UltroSpec 3300 Pro; 220-1100 nm) was used to determine if SS-31 modulates cytochrome c reduction (FIG. 1). Reduction of cytochrome c with glutathione is associated with multiple shifts in the Q band (450-650 nm), with a prominent shift at 550 nm. […] Accordingly, the aromatic-cationic peptides of the present disclosure are useful for altering the structure and oxidation state of cytochrome c, and are useful for the prevention or treatment of diseases or disorders characterized by dysregulation of cytochrome c.
# Reduction of cytochrome c was monitored by increase in absorbance at 550 nm. […] Similar results were obtained using N-acetylcysteine (NAC) as a reducing agent (not shown). […] Accordingly, aromatic-cationic peptides of the present disclosure are useful for the prevention or treatment of diseases or disorders characterized by dysregulation of cytochrome c and are useful for facilitating cytochrome c reduction.
# cytochrome c [2] = target: T1, cytochrome c; experiment: Cyclic voltammetry of cytochrome c; type: biochemical
# cytochrome c [3] = target: T1, cytochrome c; experiment: Photoluminescence of cytochrome c; type: biochemical; conditions: excitation 532.8 nm
# Protocol: Photoluminescence (PL) was carried out to examine the effects of SS-31 on the electronic structure of conduction band of the heme of cytochrome c, an energy state responsible for electronic transport (FIG. 3). A […] laser (532.8 nm) was used to excite electrons in cytochrome c (FIG. 3A). Strong PL emission in cytochrome c state can be clearly identified at 650 nm (FIG. 3B). […] Accordingly, aromatic-cationic peptides of the present disclosure are useful for the prevention or treatment of diseases or disorders characterized by dysregulation of cytochrome c, for enhancing electron capacity in cytochrome c, and for treatment of diseases or disorders characterized by dysregulation of electron capacity in cytochrome c.
# cytochrome c [4] = target: T1, cytochrome c; experiment: Circular dichroism of Soret band of cytochrome c; type: biochemical
# Protocol: Circular dichroism (Olis spectropolarimeter, DSM20) was carried out to monitor Soret band (negative peak at 415 nm), as a probe for the π-π* heme environment in cytochrome c (FIG. 4). […] The increase in π-π* interaction around the heme would enhance electron tunneling which would be favorable for electron diffusion. Accordingly, aromatic-cationic peptides of the present disclosure are useful for the prevention or treatment of diseases or disorders characterized by dysregulation of cytochrome c, and to induce novel π-π interactions around cytochrome c heme.
# isolated mitochondria = experiment: ATP synthesis in isolated mitochondria; type: biochemical, rat
# Protocol: Fresh mitochondria were isolated from rat kidney as described previously. Electron flux was measured by O2 consumption (Oxygraph Clark electrode) as previously described using different substrates for C1 (glutamate/malate), C2 (succinate), and C3 (TMPD/ascorbate). Assays were carried out under low substrate conditions in order to avoid saturating the enzyme reactions. ATP production in isolated mitochondria was determined kinetically using the luciferase method (Biotherma) in a 96-well luminescence plate reader (Molecular Devices). The initial maximal rate for ATP synthesis was determined over the first minute.
# The rate of mitochondrial ATP synthesis was determined by measuring ATP in respiration buffer collected from isolated mitochondria 1 min after addition of […] (FIG. 6). ATP was assayed by HPLC. All experiments were carried out in triplicate, with n=3. […] Accordingly, aromatic-cationic peptides of the present disclosure are useful for increasing ATP synthesis in mitochondria and for treating diseases or disorder characterized by dysregulation of ATP synthesis.
# SS-20 or SS-31 was added at 100 μM concentrations to isolated mitochondria in respiration buffer containing 0.5 mM succinate (complex II substrate) and 400 μM ADP. Similar increases in O2 consumption were observed when low concentrations of complex I substrates (glutamate/malate) were used (data not shown). […] Accordingly, targeting SS-20 and SS-31 to the IMM can facilitate electron flux in the electron transport chain and improve ATP synthesis, especially under conditions of reduced substrate supply.
# Increase in electron flux in the electron transport chain can either result in increase in ATP synthesis or increase in electron leak and generation of free radicals. ATP synthesis in isolated mitochondria was assayed by HPLC. […] Accordingly, aromatic-cationic peptides of the present disclosure are useful for increasing ATP synthesis in mitochondria and for treating diseases or disorder characterized by dysregulation of ATP synthesis.
# [5] = target: T2, horse radish peroxidase (HRP) (Armoracia rusticana, UniProt P00433); experiment: Horseradish peroxidase activity (Amplex Red); type: biochemical; conditions: data not shown
# T2 sequence (P00433 31-338 limits assumed): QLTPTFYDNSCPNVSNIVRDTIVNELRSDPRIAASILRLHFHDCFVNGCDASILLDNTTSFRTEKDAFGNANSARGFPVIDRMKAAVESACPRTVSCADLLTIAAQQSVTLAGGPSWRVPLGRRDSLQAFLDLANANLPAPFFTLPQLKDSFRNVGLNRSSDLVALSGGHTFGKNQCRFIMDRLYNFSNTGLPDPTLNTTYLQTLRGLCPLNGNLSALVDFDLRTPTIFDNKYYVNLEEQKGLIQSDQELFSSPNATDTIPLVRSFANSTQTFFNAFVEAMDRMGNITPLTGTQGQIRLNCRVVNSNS
# T1 sequence (P00004 2-105 limits assumed): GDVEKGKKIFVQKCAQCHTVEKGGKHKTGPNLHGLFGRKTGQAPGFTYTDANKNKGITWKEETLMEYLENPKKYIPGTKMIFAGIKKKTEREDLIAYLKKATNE
substance,measurement,setting,value
"D-Arg-2′,6′-Dmt-Lys-Phe-NH2 [SS-31]",rate of NAC-induced cytochrome c reduction,cytochrome c [1]; N-acetylcysteine (NAC) as reducing agent,dose-dependently increased the rate of NAC-induced cytochrome c reduction
same,rate (kinetics) of cytochrome c reduction,"cytochrome c [1]; glutathione (GSH) as reducing agent, absorbance at 550 nm",increased the rate of cytochrome c reduction; also recorded: accelerate the kinetics of cytochrome c reduction
same,reduction of cytochrome c by peptide alone,cytochrome c [1]; peptide alone at 100 μM,did not reduce cytochrome c
same,spectral weight shift in Q band of cytochrome c,cytochrome c [1]; reduction of cytochrome c with glutathione,significant spectral weight shift at 550 nm
same,reduction/oxidation potentials of cytochrome c,cytochrome c [2],does not alter reduction/oxidation potentials
same,current of cytochrome c reduction and oxidation processes,"cytochrome c [2]; Au working electrode, Ag/AgCl reference",increased current for both reduction and oxidation processes of cytochrome c
same,increase of current (electron diffusion rate),"cytochrome c [2]; cytochrome c:SS-31=1:2, TBE buffer",~200%
same,photoluminescence (PL) intensity of cytochrome c at 650 nm,cytochrome c [3],increased dose-dependently
same,position of Soret band negative peak after peptide (415 nm before),cytochrome c [4],440 nm
same,rate of ATP synthesis,"isolated mitochondria; 1 min after addition of 400 mM ADP, HPLC",dose-dependently increased the rate of ATP synthesis
same,ATP synthesis,isolated mitochondria; assayed by HPLC (Example 18),dose-dependently increased ATP synthesis
same,rate of ATP production,isolated mitochondria; mitochondria energized with low concentrations of succinate,significant increase in the rate of ATP production
same,HRP activity,[5],no effect
